Laboratory results reported in BindingDB's records for patent US20230303494 (Academy of Military Medical Sciences, 2023).

target: Programmed cell death 1 ligand/protein 1 (Homo sapiens, UniProt Q9NZQ7+Q15116); assay: Activity of Compounds to Inhibit PD-1/PD-L1 Interaction
Sequence (Q9NZQ7 whole entry): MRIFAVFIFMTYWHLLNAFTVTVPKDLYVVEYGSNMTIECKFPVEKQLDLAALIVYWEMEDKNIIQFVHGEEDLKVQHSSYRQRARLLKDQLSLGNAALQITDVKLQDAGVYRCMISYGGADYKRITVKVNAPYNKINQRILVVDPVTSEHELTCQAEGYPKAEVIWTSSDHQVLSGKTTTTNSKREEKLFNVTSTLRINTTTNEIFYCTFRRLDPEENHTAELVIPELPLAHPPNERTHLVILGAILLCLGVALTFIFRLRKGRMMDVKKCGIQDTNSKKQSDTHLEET
Sequence (Q15116 whole entry): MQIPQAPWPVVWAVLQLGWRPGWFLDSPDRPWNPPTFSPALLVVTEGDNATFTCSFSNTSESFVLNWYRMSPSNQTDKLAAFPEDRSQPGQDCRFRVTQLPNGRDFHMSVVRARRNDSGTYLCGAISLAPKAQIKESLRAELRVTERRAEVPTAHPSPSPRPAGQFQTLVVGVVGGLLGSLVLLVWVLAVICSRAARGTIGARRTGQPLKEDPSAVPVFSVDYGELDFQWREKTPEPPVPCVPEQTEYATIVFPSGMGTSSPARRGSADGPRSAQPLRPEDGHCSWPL

In order of falling IC50:
1. COc1cc(NCc2cccc(-c3ccccc3)c2C)c(C)cc1CNC(CO)C(=O)O (stereo unspecified) [US20230303494, Compound 14]  253 nM
2. N#Cc1cncc(COc2cc(NCc3cccc(-c4ccccc4)c3Br)ccc2CNC(CO)C(=O)O)c1 (stereo unspecified) [US20230303494, Compound 31]  206 nM
3. Cc1c(CNc2cc(OCc3cncc(C#N)c3)c(CNC(CO)C(=O)O)cc2Cl)cccc1-c1ccc2c(c1)OCCO2 (stereo unspecified) [US20230303494, Compound 36]  131 nM
4. Cc1cc(CNC(CO)C(=O)O)c(OCc2cncc(C#N)c2)cc1NCc1cccc(-c2ccc3c(c2)OCCO3)c1C (stereo unspecified) [US20230303494, Compound 35]  44 nM
5. Cc1cc(CNC(CO)C(=O)O)c(OCc2cncc(C#N)c2)cc1NCc1cccc(-c2ccccc2)c1Br (stereo unspecified) [US20230303494, Compound 32]  31 nM
6. Cc1c(CNc2cc(OCc3cncc(C#N)c3)c(CNC(CO)C(=O)O)cc2Cl)cccc1-c1ccccc1 (stereo unspecified) [US20230303494, Compound 13]  26 nM
